In patent US20220000911A1, “COMBINATION OF GOLD COMPLEXES WITH OLAPARIB OR OTHER PARP1/2 INHIBITORS FOR USE IN THE TREATMENT OF CANCER RESISTANT TO SAID PARP1/2 INHIBITORS” (Varsity Pharmaceuticals Limited, priority 2020, published 2022):

How the values were obtained:
Type in all cases: cell-based
[1] = tested on: wildtype A2780 ovarian cancer cells; assay: CellTiter Glo proliferation inhibition, wild-type A2780 cells; conditions: for Maximum inhibition observed in wild-type A2780 cells: concentration range 0.06 nM to 30,000 nM
Experimental: The A2780 cell line is an ovarian cancer cell line that was established from an ovarian endometroid adenocarcinoma tumour. […] It is commonly used as a model to observe the effects of, and test the potency of various chemicals, methods of delivery and treatments for ovarian cancer. […] The cells were diluted with culture medium and 40 μL of cell suspension (1000 cells/well) was added into each well of a 384-well cell culture plate. The plate was covered with a lid and left at room temperature without shaking for 30 minutes. The plate was then transferred to an incubator at 37° C. and 5% CO2 and left overnight. Test compounds were dissolved at a concentration of 30 mM in DMSO to create a stock solution. 45 μL of the stock solution was transferred to a 384 pp-plate. […] The plate was then spun at room temperature at 1,000 RPM for 1 minute. 40 nL of the diluted compound was then transferred from the compound source plate into the cell plate. The cell plate was then covered with a lid and placed in an incubator at 37° C. and 5% CO2 and left for 120 hours. 72 hours after treatment with the compound detection was conducted as discussed below. CellTiter Glo® reagents were thawed and equilibrated to room temperature. The cell plate was then removed from the incubator and equilibrated at room temperature for 15 minutes. 30 μL of the CellTiter Glo® reagents were then added into each well (at 1:1 to culture medium). The contents was mixed for 2 minutes on an orbital shaker to induce cell lysis and then the plates were allowed to incubate at room temperature for 30 minutes. Luminescence was then measured on an Envision reader (Perkin Elmer). The inhibition activity was calculated using the following formula: […]

[2] = tested on: olaparib resistant A2780 ovarian cancer cells; assay: CellTiter Glo proliferation inhibition, olaparib resistant A2780 cells, single agents; conditions: for Maximum inhibition observed in olaparib resistant A2780 cells: concentration range 0.06 nM to 30,000 nM
Experimental: A2780 ovarian cancer cells (wild-type “WT”) were cultured in RPMI 1640 Medium with 10% Fetal Bovine Serum (FBS).
To obtain cells resistant to olaparib, the cells were cultured in cell culture medium (RPMI 1640 Medium with 10% FBS) supplemented with 20 μM olaparib for one month in order to generate A2780 cells resistant to olaparib (“R”). After a month the cells were continuously cultured in the cell culture medium (RPMI 1640 Medium with 10% FBS) supplemented with 10 μM olaparib prior to use and for up to two months to maintain the resistance.
(§1) The cells were harvested from a flask into cell culture medium (RPMI 1640 Medium with 10% FBS) and then counted. The cells were diluted with culture medium and 40 μL of cell suspension (1000 cells/well) was added into each well of a 384-well cell culture plate. The plate was covered with a lid and left at room temperature without shaking for 30 minutes. The plate was then transferred to an incubator at 37° C. and 5% CO2 and left overnight.
Test compounds were dissolved at a concentration of 30 mM in DMSO to create a stock solution. 45 μL of the stock solution was transferred to a 384 pp-plate. […] The plate was then spun at room temperature at 1,000 RPM for 1 minute. 40 nL of the diluted compound was then transferred from the compound source plate into the cell plate. The cell plate was then covered with a lid and placed in an incubator at 37° C. and 5% CO2 and left for 120 hours. 72 hours after treatment with the compound detection was conducted as discussed below.
(§2) CellTiter Glo® reagents were thawed and equilibrated to room temperature. The cell plate was then removed from the incubator and equilibrated at room temperature for 15 minutes. 30 μL of the CellTiter Glo® reagents were then added into each well (at 1:1 to culture medium). The contents was mixed for 2 minutes on an orbital shaker to induce cell lysis and then the plates were allowed to incubate at room temperature for 30 minutes. Luminescence was then measured on an Envision reader (Perkin Elmer).
The inhibition activity was calculated using the following formula:
(§3) Inhibition (%)=100×(Lumvehicle−Lumsample)/(Lumvehicle−Lumblank),
where Lumvehicle is the luminescence of cells treated with 0.1% DMSO and Lumblank is cells in the culture medium.
The IC50 was calculated by fitting the curve using Xlfit (v5.3.1.3), equation 201: […]

[3] = tested on: olaparib resistant HCC1937 triple negative breast cancer cells; assay: Proliferation inhibition of olaparib resistant HCC1937 cells, single agents
Experimental: as §1
Test compounds were dissolved at a concentration of 30 mM in DMSO to create a stock solution. 45 μL of the stock solution was transferred to a 384 pp-plate. A 3-fold, 10-point dilution was performed by transferring 15 μL of the compound solution into 30 μL DMSO by using TECAN (EVO200) liquid handler. The plate was then spun at room temperature at 1,000 RPM for 1 minute. 40 nL of the diluted compound was then transferred from the compound source plate into the cell plate. The cell plate was then covered with a lid and placed in an incubator at 37° C. and 5% CO2 and left for 120 hours. 72 hours after treatment with the compound detection was conducted as discussed below.
as §2, §3
The methods were as described in examples 1 and 2, except the HCC1937 cell line was used.
The HCC1937 cell line was established from a primary breast carcinoma from a patient with a germ-line BRCA1 mutation. It is an example of a triple-negative breast cancer (TNBC) cell line. Breast cancer patients routinely have the expression of estrogen receptor (ER), progesterone receptor (PR), and amplification of HER-2/Neu evaluated. […] The latter group is referred to as triple-negative breast cancer based on the lack of these three molecular markers. TNBC represents approximately 10-15% of all breast cancers and patients with TNBC have a poor outcome compared to the other subtypes of breast cancer.

[4] = wildtype A2780, test conc. 1,111.11 nM
[5] = wildtype A2780, test conc. 3,333.33 nM
[6] = olaparib resistant A2780, test conc. 1,111.11 nM
[7] = olaparib resistant A2780, test conc. 3,333.33 nM

CC(=O)OC[C@H]1O[C@@H]([S-])[C@H](OC(C)=O)[C@@H](OC(C)=O)[C@@H]1OC(C)=O.CCP(CC)CC.[Au+] [Auranofin, auranofin]
Maximum inhibition observed in wild-type A2780 cells [1]: 100%
IC50 ([1]; wild-type A2780 cells): 101 nM
Mean Inhibition (n = 3) ([1]; wildtype A2780, test conc. 1.52 nM): −1.87%
Mean Inhibition (n = 3) ([1]; wildtype A2780, test conc. 4.57 nM): −0.74%
Mean Inhibition (n = 3) ([1]; wildtype A2780, test conc. 13.72 nM): 2.52%
Mean Inhibition (n = 3) ([1]; wildtype A2780, test conc. 41.15 nM): 21.08%
Mean Inhibition (n = 3) ([1]; wildtype A2780, test conc. 123.46 nM): 56.32%
Mean Inhibition (n = 3) ([1]; wildtype A2780, test conc. 370.37 nM): 86.25%
Mean Inhibition (n = 3) [1, 4]: 98.39%
Mean Inhibition (n = 3) [1, 5]: 100.15%
Mean Inhibition (n = 3) ([1]; wildtype A2780, test conc. 10,000 nM): 100.17%
Mean Inhibition (n = 3) ([1]; wildtype A2780, test conc. 30,000 nM): 100.20%
Maximum inhibition observed in olaparib resistant A2780 cells [2]: 100%
Mean Inhibition (n = 3) ([2]; olaparib resistant A2780, test conc. 1.52 nM): 4.64%
Mean Inhibition (n = 3) ([2]; olaparib resistant A2780, test conc. 4.57 nM): 3.42%
Mean Inhibition (n = 3) ([2]; olaparib resistant A2780, test conc. 13.72 nM): 12.34%
Mean Inhibition (n = 3) ([2]; olaparib resistant A2780, test conc. 41.15 nM): 41.07%
Mean Inhibition (n = 3) ([2]; olaparib resistant A2780, test conc. 123.46 nM): 78.31%
Mean Inhibition (n = 3) ([2]; olaparib resistant A2780, test conc. 370.37 nM): 96.38%
Mean Inhibition (n = 3) [2, 6]: 96.82%
Mean Inhibition (n = 3) [2, 7]: 100.13%
Mean Inhibition (n = 3) ([2]; olaparib resistant A2780, test conc. 10,000 nM): 100.19%
Mean Inhibition (n = 3) ([2]; olaparib resistant A2780, test conc. 30,000 nM): 100.17%
IC50 ([2]; olaparib resistant A2780 cells): 55 nM
Mean Inhibition (n = 3) ([3]; test conc. 1.52 nM): −8.11%
Mean Inhibition (n = 3) ([3]; test conc. 4.57 nM): 0.54%
Mean Inhibition (n = 3) ([3]; test conc. 13.72 nM): −0.91%
Mean Inhibition (n = 3) ([3]; test conc. 41.15 nM): 0.49%
Mean Inhibition (n = 3) ([3]; test conc. 123.46 nM): 0.54%
Mean Inhibition (n = 3) ([3]; test conc. 370.37 nM): 13.11%
Mean Inhibition (n = 3) ([3]; test conc. 1,111.11 nM): 59.64%
Mean Inhibition (n = 3) ([3]; test conc. 3,333.33 nM): 98.95%
Mean Inhibition (n = 3) ([3]; test conc. 10,000 nM): 100.03%
Mean Inhibition (n = 3) ([3]; test conc. 30,000 nM): 99.97%

O=C(c1cc(Cc2n[nH]c(=O)c3ccccc23)ccc1F)N1CCN(C(=O)C2CC2)CC1 [Olaparib, olaparib]
IC50 ([1]; Homo sapiens, A2780): 3890 nM
inhibition at 0.00152 µM ([1]; Homo sapiens, wildtype A2780, test conc. 1.52 nM, read-out: Mean Inhibition (n = 3)): 0.36%
inhibition at 0.00457 µM ([1]; Homo sapiens, wildtype A2780, test conc. 4.57 nM, read-out: Mean Inhibition (n = 3)): 1.77%
inhibition at 0.01372 µM ([1]; Homo sapiens, wildtype A2780, test conc. 13.72 nM, read-out: Mean Inhibition (n = 3)): 2.98%
inhibition at 0.04115 µM ([1]; Homo sapiens, wildtype A2780, test conc. 41.15 nM, read-out: Mean Inhibition (n = 3)): 5%
inhibition at 0.12346 µM ([1]; Homo sapiens, wildtype A2780, test conc. 123.46 nM, read-out: Mean Inhibition (n = 3)): 12.5%
inhibition at 0.37037 µM ([1]; Homo sapiens, wildtype A2780, test conc. 370.37 nM, read-out: Mean Inhibition (n = 3)): 11.9%
inhibition at 10 µM ([1]; Homo sapiens, wildtype A2780, test conc. 10,000 nM, read-out: Mean Inhibition (n = 3)): 62.7%
inhibition at 30 µM ([1]; Homo sapiens, wildtype A2780, test conc. 30,000 nM, read-out: Mean Inhibition (n = 3)): 70.8%
Maximum inhibition observed in wild-type A2780 cells [1]: 72%
Mean Inhibition (n = 3) [1, 4]: 24.63%
Mean Inhibition (n = 3) [1, 5]: 39.88%
IC50 ([2]; Homo sapiens, A2780): > 30000 nM
inhibition at 0.00152 µM ([2]; Homo sapiens, olaparib resistant A2780, test conc. 1.52 nM, read-out: Mean Inhibition (n = 3)): 1.01%
inhibition at 0.00457 µM ([2]; Homo sapiens, olaparib resistant A2780, test conc. 4.57 nM, read-out: Mean Inhibition (n = 3)): 2.74%
inhibition at 0.01372 µM ([2]; Homo sapiens, olaparib resistant A2780, test conc. 13.72 nM, read-out: Mean Inhibition (n = 3)): 1.78%
inhibition at 0.04115 µM ([2]; Homo sapiens, olaparib resistant A2780, test conc. 41.15 nM, read-out: Mean Inhibition (n = 3)): 1.43%
inhibition at 0.12346 µM ([2]; Homo sapiens, olaparib resistant A2780, test conc. 123.46 nM, read-out: Mean Inhibition (n = 3)): 5.53%
inhibition at 0.37037 µM ([2]; Homo sapiens, olaparib resistant A2780, test conc. 370.37 nM, read-out: Mean Inhibition (n = 3)): 5.11%
inhibition at 10 µM ([2]; Homo sapiens, olaparib resistant A2780, test conc. 10,000 nM, read-out: Mean Inhibition (n = 3)): 9.9%
inhibition at 30 µM ([2]; Homo sapiens, olaparib resistant A2780, test conc. 30,000 nM, read-out: Mean Inhibition (n = 3)): 16.2%
Maximum inhibition observed in olaparib resistant A2780 cells [2]: 23%
Mean Inhibition (n = 3) [2, 6]: 2.24%
Mean Inhibition (n = 3) [2, 7]: 6.97%
inhibition at 0.00152 µM ([3]; test conc. 1.52 nM, read-out: Mean Inhibition (n = 3)): -6.55%
inhibition at 0.00457 µM ([3]; test conc. 4.57 nM, read-out: Mean Inhibition (n = 3)): -1.82%
inhibition at 0.01372 µM ([3]; test conc. 13.72 nM, read-out: Mean Inhibition (n = 3)): -3.47%
inhibition at 0.04115 µM ([3]; test conc. 41.15 nM, read-out: Mean Inhibition (n = 3)): -0.93%
inhibition at 0.12346 µM ([3]; test conc. 123.46 nM, read-out: Mean Inhibition (n = 3)): 1.32%
inhibition at 0.37037 µM ([3]; test conc. 370.37 nM, read-out: Mean Inhibition (n = 3)): 4.41%
Mean Inhibition (n = 3) ([3]; test conc. 1,111.11 nM): 3.09%
Mean Inhibition (n = 3) ([3]; test conc. 3,333.33 nM): 4.90%
inhibition at 10 µM ([3]; test conc. 10,000 nM, read-out: Mean Inhibition (n = 3)): 17%
inhibition at 30 µM ([3]; test conc. 30,000 nM, read-out: Mean Inhibition (n = 3)): 11.8%
